Format in all cases: physicochemical
Data set [1] is described as follows: Solid-state stability study of compound of formula (I) (appearance, HPLC content). The conditions noted are these: 34 days. The method, then:
Method/Technique. 2 mg samples of compound of formula (I), accurately weighed, were placed in 4-mL clear glass screw-cap vials. Samples were tested at initial and after 34 days stored at 5° C./Ambient Relative Humidity (AMRH) Closed, 30° C./60% RH Closed, 40° C./75% RH Open and 60° C./AMRH Closed.
Samples were inspected visually for appearance. Compound of formula (I) content values were determined by the HPLC method in Table 1. The % weight/weight (% w/w) values were measured relative to standard samples of compound of formula (I) Batch U12438/79/1. The % area values were obtained by dividing the compound of formula (I) peak area by the total peak area.

The nature of data set [2]: pKa determination (potentiometric titration, Sirius GlpKa). The conditions noted are these: MeOH:H2O mixtures, extrapolated to 0% co-solvent, free base. The method, then:
Two basic centres of the free base of the compound were measured for pKa. […] The pKa of the basic centre of the imidazole ring was measured to be 4.53.
pka determination was performed on a Sirius GlpKa instrument with D-PAS attachment. Measurements were made by potentiometric titration in MeOH:H2O mixtures at 25° C. The titration media was ionic strength adjusted with 0.15M KCl. The values found in the MeOH:H2O mixtures were extrapolated to 0% co-solvent via a Yasuda-Shedlovsky extrapolation.

Data set [3] can be described thus: Solubility in organic solvents. The conditions noted are these: organic solvent or mixture, read-out: Min solvent required (solubility). How it is done:
The solubility of the compound of formula (I) was determined in a wide range of organic solvents.

A short description of a further data set: Solubility in water. The conditions noted are these: thermodynamic from solid, 25° C., maximum 10 mg/ml of parent free form. The method, then: This was measured by suspending enough compound in 0.25 ml of solvent (water) to give a maximum final concentration of 10 mg/ml of the parent free form of the compound. The suspension was equilibrated at 25° C. for 24 hrs followed by a pH check and filtration through a glass fibre C 96 well plate. The filtrate is then diluted down 101×. Quantitation was by HPLC with reference to a standard dissolved in DMSO at approx 0.1 mg/ml. Different volumes of the standard, diluted and undiluted tests were injected. The solubility was calculated by integration of the peak area found at the same retention time as the peak maximum in the standard injection. If there is sufficient solid in the filter plate the XRPD is normally checked for phase changes, hydrate formation, amorphization, crystallization etc.

≈ marks a conversion by molar mass, not a printed value. Read-outs that look alike come from different tables or passages of the source.

One may read the pKa as the negative logarithm of the acid dissociation constant. Broadly, the solubility is the dissolved amount per volume that the medium holds. Turning to `COC(=O)CC[C@@H]1N=C(c2ccccn2)c2cc(Br)ccc2-n2c(C)cnc21` [compound of formula (I), Methyl 3-[(4S)-8-bromo-1-methyl-6-(2-pyridinyl)-4H-imidazol[1,2-a][1,4]benzodiazepin-4-yl]propanoate], the Appearance entry is on record as “Deliquesced yellow mass on bottom” in data set [1] (40 C./75% RH Open) and “Deliquesced dark yellow to orange” in data set [1] (60 C./AMRH Closed). Moreover, the pKa in data set [2] (basic centre of the imidazole ring) was 4.53; in data set [2] (basic centre of the pyridine ring), 1.99. The solubility worked out at 214 mg/mL in data set [3] (acetone); 362 mg/mL in data set [3] (acetonitrile); 324 mg/mL in data set [3] (ethanol); 218 mg/mL in data set [3] (ethyl acetate); 446 mg/mL in data set [3] (methanol); 454 mg/mL in data set [3] (propan-2-ol). Moreover, the solubility came to 311 mg/mL in data set [3] (tetrahydrofuran) and 460 mg/mL in data set [3] (toluene).
In the case of `COC(=O)CC[C@@H]1N=C(c2ccccn2)c2cc(Br)ccc2-n2c(C)cnc21` [LJC-039-034-1], in the data set “Solubility in water”, the solubility at 24 h was 7.8 mg/mL (≈ 17.8 mM).
